Earlier results as cited in US20090162488A1, “BEVERAGE PRODUCTS AND FLAVOR SYSTEMS HAVING A NON-SWEETENING AMOUNT OF MONATIN” (The Concentrate Manufacturing Company of Ireland, priority 2007, published 2009).
Peptide text beside a SMILES is read from it.

Settings: commonly accepted potency figures; weight basis versus sugar

| Structure (SMILES) | potency figures: times as sweet as sugar |
| --- | --- |
| CC1=CC(=O)NS(=O)(=O)O1 [Acesulfame-K] | 200 times as sweet as sugar |
| C[C@@H](NC(=O)[C@@H](N)CC(=O)O)C(=O)NC1C(C)(C)SC1(C)C [Alitame] | 2,000 times as sweet as sugar |
| COC(=O)[C@H](Cc1ccccc1)NC(=O)[C@@H](N)CC(=O)O [Aspartame] (H-Asp-Phe-OMe) | 200 times as sweet as sugar |
| CC1(C)[C@@H](O[C@H]2O[C@H](C(=O)O)[C@@H](O)[C@H](O)[C@H]2O[C@@H]2O[C@H](C(=O)O)[C@@H](O)[C@H](O)[C@H]2O)CC[C@]2(C)[C@H]3C(=O)C=C4[C@@H]5C[C@@](C)(C(=O)O)CC[C@]5(C)CC[C@@]4(C)[C@]3(C)CC[C@@H]12 [Glycyrrhizin] | 30-50 times as sweet as sugar |
| C[C@H](CC[C@@H](O[C@@H]1O[C@H](CO[C@@H]2O[C@H](CO)[C@@H](O)[C@H](O)[C@H]2O)[C@@H](O)[C@H](O)[C@H]1O[C@@H]1O[C@H](CO)[C@@H](O)[C@H](O)[C@H]1O)C(C)(C)O)[C@H]1CC[C@@]2(C)[C@@H]3CC=C4[C@@H](CC[C@H](O[C@@H]5O[C@H](CO[C@@H]6O[C@H](CO)[C@@H](O)[C@H](O)[C@H]6O)[C@@H](O)[C@H](O)[C@H]5O)C4(C)C)[C@]3(C)[C@H](O)C[C@]12C [Mogroside V] | 100-300 times as sweet as sugar |
| COc1ccc(CCC(=O)c2c(O)cc(O[C@@H]3O[C@H](CO)[C@@H](O)[C@H](O)[C@H]3O[C@@H]3O[C@@H](C)[C@H](O)[C@@H](O)[C@H]3O)cc2O)cc1O [Neohesperidin dihydrochalcone] | 300 times as sweet as sugar |
| COC(=O)[C@H](Cc1ccccc1)NC(=O)[C@H](CC(=O)O)NCCC(C)(C)C [Neotame] | 8,000 times as sweet as sugar |
| C=C1C[C@@]23CC[C@H]4[C@@](C)(CCC[C@@]4(C)C(=O)O[C@@H]4O[C@H](CO)[C@@H](O)[C@H](O)[C@H]4O)[C@@H]2CC[C@]1(O[C@@H]1O[C@H](CO)[C@@H](O)[C@H](O[C@@H]2O[C@H](CO)[C@@H](O)[C@H](O)[C@H]2O)[C@H]1O[C@@H]1O[C@H](CO)[C@@H](O)[C@H](O)[C@H]1O)C3 [Rebaudioside A] | 150-300 times as sweet as sugar |
| O=C1NS(=O)(=O)c2ccccc21 [Saccharin] | 300 times as sweet as sugar |
| C=C1C[C@@]23CC[C@H]4[C@@](C)(CCC[C@@]4(C)C(=O)O[C@@H]4O[C@H](CO)[C@@H](O)[C@H](O)[C@H]4O)[C@@H]2CC[C@]1(O[C@@H]1O[C@H](CO)[C@@H](O)[C@H](O)[C@H]1O[C@@H]1O[C@H](CO)[C@@H](O)[C@H](O)[C@H]1O)C3 [Stevioside] | 100-250 times as sweet as sugar |
| OC[C@H]1O[C@H](O[C@]2(CCl)O[C@H](CCl)[C@@H](O)[C@@H]2O)[C@H](O)[C@@H](O)[C@H]1Cl [Sucralose] | 600 times as sweet as sugar |

Same assay, conditions: versus sugar (i.e., sucrose)

| Structure (SMILES) | sweetness potency |
| --- | --- |
| NC(CC(O)(Cc1c[nH]c2ccccc12)C(=O)O)C(=O)O (stereo not drawn) [Monatin, 2-hydroxy-2-(indol-3-lymethyl)-4-aminoglutaric acid] | about 2000 times as sweet as sugar |
